According to patent US6288261A, “Inhibitors of matrix metalloproteinases” (Abbott Laboratories, priority 1999, dated 2001):
pIC50: −log10 of the molar value.

biological target: T1, recombinant truncated stromelysin (human sequence) (Homo sapiens, UniProt P08254); test: Determination of Stromelysin Inhibition; format: biochemical; details: recombinant truncated human stromelysin produced in E. coli
T1 construct: made in house; host or cells: E. coli
Experimental: Determination of Stromelysin Inhibition
The efficacy of the compounds of this invention as matrix metalloproteinase inhibitors was determined by measuring the inhibition of stromelysin. The inhibition of stromelysin by the compounds of this invention was determined as follows: recombinant truncated stromelysin (human sequence) produced in E. coli was prepared by expression and purification of the protein as described by Ye et al, Biochemistry, 1992, 31, 11231-11235. The IC50 values were determined as described in Steiman et al, Bioorganic and Medicinal Chemistry Letters, (1998), 8, 2087-2092 (footnote 13).

T1 sequence (P08254 100-273 limits assumed): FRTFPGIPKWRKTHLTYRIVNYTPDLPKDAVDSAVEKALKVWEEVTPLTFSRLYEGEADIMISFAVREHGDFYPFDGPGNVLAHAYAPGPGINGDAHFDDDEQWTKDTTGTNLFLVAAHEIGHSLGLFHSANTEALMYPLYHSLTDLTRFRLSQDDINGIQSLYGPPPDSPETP

Going from `O=C(NO)c1c(CCOc2ccc(-c3ccc(Cl)cc3)cc2)ccc2ccccc12` [Example 1, 2-[2-[(4'-chloro[1,1'-biphenvyl]-4-vl)oxy]eyl]-N-hydroxy-1-naphthalenecarboxamide] to `O=C(NO)c1c(CCS(=O)(=O)c2ccc(-c3ccc(Cl)cc3)cc2)ccc2ccccc12` [Example 8, 2-[2-[(4'-chloro[1,1'-biphenyl]-4-yl)sulfonyl]ethyl]-N-hydroxy-1-naphthalenecarboxamide], the pIC50 falls from 6.19 to 5.43 (0.76 log units).

`O=C(NO)c1c(OCCS(=O)(=O)c2ccc(-c3ccc(Cl)cc3)cc2)ccc2ccccc12` [Example 6, 2-[[2-(4'-chloro[1,1'-biphenyl]-4-yl)sulfonyl]ethoxy]-N-hydroxy-1-naphthalenecarboxamide] and `COc1ccc(-c2ccc(S(=O)(=O)CCOc3ccc4ccccc4c3C(=O)NO)cc2)cc1` [Example 7, N-hydroxy-2-[2-[(4'-methoxy[1,1'-biphenyl]-4-vl)sulfonyl]ethoxy]-1-naphthalenecarboxamide] are within 0.2 log units of each other in pIC50: 6.17 for the first, 6.34 for the second.

Going from `O=C(NO)c1c(CNS(=O)(=O)c2ccc(-c3ccc(OC(F)(F)F)cc3)cc2)ccc2ccccc12` [Example 9] to `COc1ccc(-c2ccc(S(=O)(=O)CCCc3ccc4ccccc4c3C(=O)NO)cc2)cc1` [Example 10, N-hydroxy-2-[3-[(4'-methoxy[1,1'-biphenyl]-4-yl)sulfonyl]propyl]-1-naphthalenecarboxamide], the pIC50 rises from 6.16 to 6.40 (0.24 log units).

First: COc1ccc(-c2ccc(C(=O)CCCc3ccc4ccccc4c3C(=O)NO)cc2)cc1 [Example 11, N-hydroxy-2-[4-(4'-methoxy[1,1'-biphenyl]-4-yl)-4-oxobutyl]-1-naphthalenecarboxamide]
Second: COc1ccc(-c2ccc(C(=O)CCc3ccc4ccccc4c3C(=O)NO)cc2)cc1 [Example 12, N-hydroxy-2-[3-(4'-methoxy[1,1'-biphenyl]-4-yl)-3-oxopropyl]-1-naphthalenecarboxamide]
The pIC50 of the first is 0.53 log units lower: 5.82 for the first, 6.35 for the second. The second is the more potent here.

`N#CCc1cccc(-c2ccc(S(=O)(=O)CCOc3ccc4ccccc4c3C(=O)NO)cc2)c1` [Example 13] was tested, and the pIC50 was 7.21.
